Experimental data as given in the supplement of paper PMC10307832.

What was measured:
Assay in all cases: relative viability (nuclei count vs DMSO), 5 days (fraction); higher = more cells survive
Bosutinib + AZD7762 = compound: COc1cc(Nc2c(C#N)cnc3cc(OCCCN4CCN(C)CC4)c(OC)cc23)c(Cl)cc1Cl [Bosutinib] + NC(=O)Nc1cc(-c2cccc(F)c2)sc1C(=O)N[C@H]1CCCNC1 [AZD7762] (partner 0.2 µM)
Summary of the method: (§1)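 A single step with final 0.05% Triton X-100, 1% formaldehyde and 1 ug/ml Hoechst fixed the cells and stained nuclei 5 days after treatment. Lung cancer cell lines in 1536-well plates had been treated by pin tool the day after seeding with one drug alone or a fixed anchor-drug dose plus five library-drug doses (not always all listed) in √10 steps, and nuclei were counted on 4× images. Relative viability is the ratio of nuclei in treated wells to nuclei in vehicle wells, taken as the median of duplicate plates.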

Bosutinib + Pictilisib = compound: COc1cc(Nc2c(C#N)cnc3cc(OCCCN4CCN(C)CC4)c(OC)cc23)c(Cl)cc1Cl [Bosutinib] + CS(=O)(=O)N1CCN(Cc2cc3nc(-c4cccc5[nH]ncc45)nc(N4CCOCC4)c3s2)CC1 [Pictilisib] (partner 1 µM)
Summary of the method: as §1

Bosutinib + Trametinib = compound: COc1cc(Nc2c(C#N)cnc3cc(OCCCN4CCN(C)CC4)c(OC)cc23)c(Cl)cc1Cl [Bosutinib] + CC(=O)Nc1cccc(-n2c(=O)n(C3CC3)c(=O)c3c(Nc4ccc(I)cc4F)n(C)c(=O)c(C)c32)c1 [Trametinib] (partner 0.02 µM)
Summary of the method: as §1

Bosutinib + Crizotinib = compound: COc1cc(Nc2c(C#N)cnc3cc(OCCCN4CCN(C)CC4)c(OC)cc23)c(Cl)cc1Cl [Bosutinib] + C[C@@H](Oc1cc(-c2cnn(C3CCNCC3)c2)cnc1N)c1c(Cl)ccc(F)c1Cl [Crizotinib] (partner 1 µM)
Summary of the method: as §1

Bosutinib + Olaparib = compound: COc1cc(Nc2c(C#N)cnc3cc(OCCCN4CCN(C)CC4)c(OC)cc23)c(Cl)cc1Cl [Bosutinib] + O=C(c1cc(Cc2n[nH]c(=O)c3ccccc23)ccc1F)N1CCN(C(=O)C2CC2)CC1 [Olaparib] (partner 8 µM)
Summary of the method: as §1

Cell Line | relative viability (Bosutinib + AZD7762; first compound 0.01 µM) | relative viability (Bosutinib + AZD7762; first compound 0.03162 µM) | relative viability (Bosutinib + AZD7762; first compound 0.1 µM) | relative viability (Bosutinib + AZD7762; first compound 1 µM) | relative viability (Bosutinib + Pictilisib; first compound 0.01 µM) | relative viability (Bosutinib + Pictilisib; first compound 0.03162 µM) | relative viability (Bosutinib + Pictilisib; first compound 0.1 µM) | relative viability (Bosutinib + Pictilisib; first compound 1 µM) | relative viability (Bosutinib + Trametinib; first compound 0.01 µM) | relative viability (Bosutinib + Trametinib; first compound 0.03162 µM) | relative viability (Bosutinib + Trametinib; first compound 0.1 µM) | relative viability (Bosutinib + Trametinib; first compound 1 µM) | relative viability (Bosutinib + Crizotinib; first compound 0.01 µM) | relative viability (Bosutinib + Crizotinib; first compound 0.03162 µM) | relative viability (Bosutinib + Crizotinib; first compound 0.1 µM) | relative viability (Bosutinib + Crizotinib; first compound 1 µM) | relative viability (Bosutinib + Olaparib; first compound 0.01 µM) | relative viability (Bosutinib + Olaparib; first compound 0.03162 µM) | relative viability (Bosutinib + Olaparib; first compound 0.1 µM) | relative viability (Bosutinib + Olaparib; first compound 1 µM)
NCI-H1355 | 0.801 | 0.707 | 0.707 | 0.534 | 0.465 | 0.545 | 0.572 | 0.412 | 0.474 | 0.425 | 0.45 | 0.419 | 1.07 | 1.04 | 1.12 | 0.905 | 0.715 | 0.733 | 0.784 | 0.633
NCI-H1944 | 0.558 | 0.533 | 0.476 | 0.394 | 0.35 | 0.327 | 0.333 | 0.345 | 0.415 | 0.45 | 0.394 | 0.327 | 1.16 | 1.07 | 1.09 | 0.946 | 0.411 | 0.384 | 0.417 | 0.433
NCI-H2087 | 1.54 | 1.13 | 1.31 | 1.24 | 0.753 | 0.865 | 0.972 | 0.798 | 0.156 | 0.218 | 0.228 | 0.223 | 0.905 | 0.991 | 0.817 | 0.908 | 0.663 | 0.599 | 0.749 | 0.649
NCI-H838 | 0.994 | 0.914 | 0.892 | 0.807 | 0.468 | 0.429 | 0.414 | 0.319 | 0.518 | 0.483 | 0.472 | 0.316 | 0.845 | 0.79 | 0.737 | 0.354 | 0.84 | 0.752 | 0.684 | 0.406
LC-2-ad | 0.88 | 0.818 | 0.846 | 0.755 | 0.571 | 0.45 | 0.459 | 0.419 | 0.953 | 0.898 | 0.892 | 0.859 | 0.449 | 0.473 | 0.445 | 0.539 | 0.719 | 0.672 | 0.678 | 0.732
HCC-78 | 0.655 | 0.788 | 0.781 | 0.584 | 0.2 | 0.196 | 0.269 | 0.301 | 0.84 | 0.712 | 0.768 | 0.725 | 0.358 | 0.319 | 0.284 | 0.314 | 0.722 | 0.937 | 0.888 | 0.687
LOU-NH91 | 0.78 | 0.757 | 0.704 | 0.679 | 0.492 | 0.524 | 0.504 | 0.468 | 0.816 | 0.805 | 0.771 | 0.672 | 0.737 | 0.723 | 0.707 | 0.49 | 0.889 | 0.868 | 0.898 | 0.697
